Data taken from article PMC9917560, “Design, Synthesis and Antimicrobial Evaluation of New N-(1-Hydroxy-1,3-dihydrobenzo[c][1,2]oxaborol-6-yl)(hetero)aryl-2-carboxamides as Potential Inhibitors of Mycobacterial Leucyl-tRNA Synthetase” (International Journal of Molecular Sciences, 2023).
≈ marks a conversion by molar mass, not a printed value. Like-named read-outs stand apart in the source and are kept apart here.

Key:
[1] = system: Mycobacterium tuberculosis H37Ra ITM-M006710 (ATCC 9431); test: Antimycobacterial microdilution (resazurin) vs Mtb H37Ra; type: cell-based
[2] = system: Mycobacterium tuberculosis H37Rv CNCTC My 331/88 (ATCC 27294); test: Microplate Alamar Blue assay vs Mtb H37Rv; type: cell-based; settings: Mycobacterium tuberculosis
[3] = system: Mycobacterium kansasii DSM 44,162 (ATCC 12478); test: Antimycobacterial microdilution (resazurin) vs M. kansasii; type: cell-based; settings: read-out: MIC M. kansasii
[4] = system: Mycobacterium avium DSM 44,156 (ATCC 25291); test: Antimycobacterial microdilution (resazurin) vs M. avium; type: cell-based; settings: Mycobacterium avium, Middlebrook 7H9, resazurin; read-out: MIC M. avium
[5] = system: Mycolicibacterium aurum DSM 43,999 (ATCC 23366); test: Antimycobacterial microdilution (resazurin) vs M. aurum; type: cell-based; settings: Middlebrook 7H9, resazurin, read-out: MIC M. aurum
[6] = system: Mycolicibacterium smegmatis DSM 43,465 (ATCC 607); test: Antimycobacterial microdilution (resazurin) vs M. smegmatis; type: cell-based; settings: Middlebrook 7H9, resazurin, read-out: MIC M. smeg.
[7] = system: Staphylococcus aureus subsp. aureus CCM 4223 (ATCC 29213); test: Antibacterial microdilution broth (EUCAST); type: cell-based; settings: read-out: MIC Staphylococcus aureus subsp. aureus
[8] = system: methicillin-resistant Staphylococcus aureus subsp. aureus (MRSA) CCM 4750 (ATCC 43300); test: microbe, parasite or virus in culture; type: cell-based; settings: read-out: MIC Methicillin-resistant Staphylococcus aureus subsp. aureus
[9] = system: Staphylococcus epidermidis CCM 4418 (ATCC 12228); test: Antibacterial microdilution broth (EUCAST); type: cell-based; settings: read-out: MIC Staphylococcus epidermidis
[10] = system: Enterococcus faecalis CCM 4224 (ATCC 29212); test: Antibacterial microdilution broth (EUCAST); type: cell-based; settings: read-out: MIC Enterococcus faecalis
[11] = system: Escherichia coli CCM 3954 (ATCC 25922); test: Antibacterial microdilution broth (EUCAST); type: cell-based; settings: Escherichia coli, read-out: MIC Escherichia coli
[12] = system: Klebsiella pneumoniae CCM 4415 (ATCC 10031); test: Antibacterial microdilution broth (EUCAST); type: cell-based; settings: Klebsiella pneumoniae, read-out: MIC Klebsiella pneumoniae
[13] = system: Acinetobacter baumannii DSM 30007 (ATCC 19606); test: Antibacterial microdilution broth (EUCAST); type: cell-based; settings: read-out: MIC Acinetobacter baumannii
[14] = system: Pseudomonas aeruginosa CCM 3955 (ATCC 27853); test: Antibacterial microdilution broth (EUCAST); type: cell-based; settings: read-out: MIC Pseudomonas aeruginosa
[15] = system: Candida albicans CCM 8320 (ATCC 24433); test: Antifungal microdilution broth (EUCAST); type: cell-based; settings: Candida albicans, read-out: MIC Candida albicans
[16] = system: Candida krusei CCM 8271 (ATCC 6258); test: Antifungal microdilution broth (EUCAST); type: cell-based; settings: Pichia kudriavzevii, read-out: MIC Candida krusei
[17] = system: Candida parapsilosis CCM 8260 (ATCC 22019); test: Antifungal microdilution broth (EUCAST); type: cell-based; settings: Lodderomyces parapsilosis, read-out: MIC Candida parapsilosis
[18] = system: Candida tropicalis CCM 8264 (ATCC 750); test: Antifungal microdilution broth (EUCAST); type: cell-based; settings: read-out: MIC Candida tropicalis
[19] = system: Aspergillus fumigatus ATCC 204305; test: Antifungal microdilution broth (EUCAST); type: cell-based; settings: Aspergillus fumigatus, ATCC204305, read-out: MIC Aspergillus fumigatus
[20] = system: Aspergillus flavus CCM 8363; test: Antifungal microdilution broth (EUCAST); type: cell-based; settings: Aspergillus flavus, CCM8363, read-out: MIC Aspergillus flavus
[21] = system: Lichtheimia corymbifera CCM 8077; test: Antifungal microdilution broth (EUCAST); type: cell-based; settings: Lichtheimia corymbifera, CCM8077, read-out: MIC Lichtheimia corymbifera
[22] = system: Trichophyton interdigitale CCM 8377 (ATCC 9533); test: Antifungal microdilution broth (EUCAST); type: cell-based; settings: Trichophyton interdigitale, read-out: MIC Trichophyton interdigitale
[23] = system: HepG2 cell line; test: Cytotoxicity screening, CellTiter 96 assay; settings: for IC50: Homo sapiens, HepG2, 24 h, read-out: IC50 HepG2; for toxicity to HepG2 up to highest tested concentration: tested up to 500 µM (2, 3), 250 µM (12, 17), 100 µM (6, 7, 11) because of solubility
[24] = Middlebrook 7H9, resazurin, recalculated from µg/mL, read-out: MIC Mtb H37Ra
[25] = pH 6.6, MABA, Middlebrook 7H9 pH 6.6, recalculated from µg/mL, read-out: MIC Mtb H37Rv

Compound: Cc1cnc(C(=O)Nc2ccc3c(c2)B(O)OC3)cn1 [Compound 2, N-(1-hydroxy-1,3-dihydrobenzo[c][1,2]oxaborol-6-yl)-5-methylpyrazine-2-carboxamide]
- MIC [1, 24]: 58.1 µM (≈ 15.6 µg/mL)
- MIC [2, 25]: 46.5 µM (≈ 12.5 µg/mL)
- MIC [3]: 58.1 µM (≈ 15.6 µg/mL)
- MIC [4]: 58.1 µM (≈ 15.6 µg/mL)
- MIC [5]: 14.5 µM (≈ 3.91 µg/mL)
- MIC [6]: 29 µM (≈ 7.81 µg/mL)
- MIC ([7]; 24h incubation): 250 µM (≈ 67.3 µg/mL)
- MIC ([7]; 48h incubation): 250 µM (≈ 67.3 µg/mL)
- MIC ([8]; 24 h): > 500 µM
- MIC ([8]; 48 h): > 500 µM
- MIC ([9]; 24h incubation): 500 µM (≈ 135 µg/mL)
- MIC ([9]; 48h incubation): 500 µM (≈ 135 µg/mL)
- MIC ([10]; 24h incubation): > 500 µM
- MIC ([10]; 48h incubation): > 500 µM
- MIC ([11]; 24h incubation): > 500 µM
- MIC ([11]; 48h incubation): > 500 µM
- MIC ([12]; 24h incubation): > 500 µM
- MIC ([12]; 48h incubation): > 500 µM
- MIC ([13]; 24h incubation): > 500 µM
- MIC ([13]; 48h incubation): > 500 µM
- MIC ([14]; 24h incubation): > 500 µM
- MIC ([14]; 48h incubation): > 500 µM
- MIC ([15]; 24h incubation): > 500 µM
- MIC ([15]; 48h incubation): > 500 µM
- MIC ([16]; 24h incubation): > 500 µM
- MIC ([16]; 48h incubation): > 500 µM
- MIC ([17]; 24h incubation): > 500 µM
- MIC ([17]; 48h incubation): > 500 µM
- MIC ([18]; 24h incubation): > 500 µM
- MIC ([18]; 48h incubation): > 500 µM
- MIC ([19]; 24h incubation): > 500 µM
- MIC ([19]; 48h incubation): > 500 µM
- MIC ([20]; 24h incubation): > 500 µM
- MIC ([20]; 48h incubation): > 500 µM
- MIC ([21]; 24h incubation): > 500 µM
- MIC ([21]; 48h incubation): > 500 µM
- MIC ([22]; 72h incubation): > 500 µM
- MIC ([22]; 120h incubation): > 500 µM
- melting point: 215 to 216.1 °C
- IC50 [23]: > 500 µM
- toxicity to HepG2 up to highest tested concentration [23]: non-toxic

Compound: O=C(Nc1ccc2c(c1)B(O)OC2)c1ccc(C(F)(F)F)nc1 [Compound 12, N-(1-hydroxy-1,3-dihydrobenzo[c][1,2]oxaborol-6-yl)-6-(trifluoromethyl)nicotinamide]
- MIC [1, 24]: 194 µM (≈ 62.5 µg/mL)
- MIC [2, 25]: 155 µM (≈ 50 µg/mL)
- MIC [3]: 194 µM (≈ 62.5 µg/mL)
- MIC [4]: 388 µM (≈ 125 µg/mL)
- MIC [5]: 12.1 µM (≈ 3.91 µg/mL)
- MIC [6]: 24.2 µM (≈ 7.81 µg/mL)
- MIC ([7]; 24h incubation): > 500 µM
- MIC ([7]; 48h incubation): > 500 µM
- MIC ([8]; 24 h): > 500 µM
- MIC ([8]; 48 h): > 500 µM
- MIC ([9]; 24h incubation): > 500 µM
- MIC ([9]; 48h incubation): > 500 µM
- MIC ([10]; 24h incubation): > 500 µM
- MIC ([10]; 48h incubation): > 500 µM
- MIC ([11]; 24h incubation): > 500 µM
- MIC ([11]; 48h incubation): > 500 µM
- MIC ([12]; 24h incubation): > 500 µM
- MIC ([12]; 48h incubation): > 500 µM
- MIC ([13]; 24h incubation): > 500 µM
- MIC ([13]; 48h incubation): > 500 µM
- MIC ([14]; 24h incubation): > 500 µM
- MIC ([14]; 48h incubation): > 500 µM
- MIC ([15]; 24h incubation): > 500 µM
- MIC ([15]; 48h incubation): > 500 µM
- MIC ([16]; 24h incubation): > 500 µM
- MIC ([16]; 48h incubation): > 500 µM
- MIC ([17]; 24h incubation): > 500 µM
- MIC ([17]; 48h incubation): > 500 µM
- MIC ([18]; 24h incubation): > 500 µM
- MIC ([18]; 48h incubation): > 500 µM
- MIC ([19]; 24h incubation): > 500 µM
- MIC ([19]; 48h incubation): > 500 µM
- MIC ([20]; 24h incubation): > 500 µM
- MIC ([20]; 48h incubation): > 500 µM
- MIC ([21]; 24h incubation): > 500 µM
- MIC ([21]; 48h incubation): > 500 µM
- MIC ([22]; 72h incubation): > 500 µM
- MIC ([22]; 120h incubation): > 500 µM
- melting point: 227.3 to 229.4 °C
- IC50 [23]: > 250 µM
- toxicity to HepG2 up to highest tested concentration [23]: non-toxic

Compound: O=C(Nc1ccc2c(c1)B(O)OC2)c1nc2ccccc2[nH]c1=O [Compound 18, N-(1-hydroxy-1,3-dihydrobenzo[c][1,2]oxaborol-6-yl)-3-oxo-3,4-dihydroquinoxaline-2-carboxamide]
- MIC ([1]; read-out: MIC Mtb H37Ra, Middlebrook 7H9, resazurin, recalculated from µg/mL): > 1850 µM
- MIC ([2]; pH 6.6, read-out: MIC Mtb H37Rv, MABA, Middlebrook 7H9 pH 6.6, recalculated from µg/mL): > 311 µM
- MIC [3]: > 1850 µM
- MIC [4]: 48.7 µM (≈ 15.6 µg/mL)
- MIC [5]: 24.3 µM (≈ 7.81 µg/mL)
- MIC [6]: 24.3 µM (≈ 7.81 µg/mL)
- MIC ([7]; 24h incubation): > 500 µM
- MIC ([7]; 48h incubation): > 500 µM
- MIC ([8]; 24 h): > 500 µM
- MIC ([8]; 48 h): > 500 µM
- MIC ([9]; 24h incubation): > 500 µM
- MIC ([9]; 48h incubation): > 500 µM
- MIC ([10]; 24h incubation): > 500 µM
- MIC ([10]; 48h incubation): > 500 µM
- MIC ([11]; 24h incubation): > 500 µM
- MIC ([11]; 48h incubation): > 500 µM
- MIC ([12]; 24h incubation): > 500 µM
- MIC ([12]; 48h incubation): > 500 µM
- MIC ([13]; 24h incubation): > 500 µM
- MIC ([13]; 48h incubation): > 500 µM
- MIC ([14]; 24h incubation): > 500 µM
- MIC ([14]; 48h incubation): > 500 µM
- MIC ([15]; 24h incubation): > 125 µM
- MIC ([15]; 48h incubation): > 125 µM
- MIC ([16]; 24h incubation): > 125 µM
- MIC ([16]; 48h incubation): > 125 µM
- MIC ([17]; 24h incubation): > 125 µM
- MIC ([17]; 48h incubation): > 125 µM
- MIC ([18]; 24h incubation): > 125 µM
- MIC ([18]; 48h incubation): > 125 µM
- MIC ([19]; 24h incubation): > 125 µM
- MIC ([19]; 48h incubation): > 125 µM
- MIC ([20]; 24h incubation): > 125 µM
- MIC ([20]; 48h incubation): > 125 µM
- MIC ([21]; 24h incubation): > 125 µM
- MIC ([21]; 48h incubation): > 125 µM
- MIC ([22]; 72h incubation): > 125 µM
- MIC ([22]; 120h incubation): > 125 µM
- melting point: 348.9 to 350.2 °C (dec.)
- IC50 [23]: 244 µM
